Measurements from publication PMC11672547, “Combination of Coevolutionary Information and Supervised Learning Enables Generation of Cyclic Peptide Inhibitors with Enhanced Potency from a Small Data Set” (ACS Central Science, 2024).
Numbered stars: 1 amine (or outer) side, 2 acyl side, 3 side chain; on linkers, the order of the positions; unused ones are H or OH. Bridge positions count the residues as written; N and C are the ends. Peptide text beside a SMILES is read from it. TBMB = c1c(C[*:1])cc(C[*:3])cc1C[*:2]

Columns and labels:
[1] = target: T1, human urokinase-type plasminogen activator (huPA) (Homo sapiens, UniProt P00749); test: huPA inhibition, fluorogenic enzyme activity assay (Z-Gly-Gly-Arg-AMC), Ki by Cheng-Prusoff; type: biochemical; details: 25 °C, pH 7.4, substrate 50 μM, mean ± S.E. of at least three measurements, read-out: Ki
T1 construct: (UPA-LMW, Molecular Innovations, Novi, MI, USA) 1.5 nM; purchased Molecular Innovations UPA-LMW
Procedure: bicyclic peptides. The activity assay was performed by incubating […] huPA with 50 μM fluorogenic substrate Z-Gly-Gly-Arg-AMC (50 μM; Bachem, Bubendorf, Switzerland) and […]
NaCl, 10 mM MgCl2, 1mM CaCl2, 0.1% w/v BSA, 0.01% v/v Triton-X100 and 5% v/v DMSO.
The measurements were performed on a Tecan microplate reader (Tecan infinite 200 pro, Tecan Trading AG, Switzerland) using black microfluor 96-well plate Nunc MicroWell, (Thermo Fisher Scientific, Dreieich, Germany) The enzymatic reactions were performed at 25 °C for 30 min, under shacking with an excitation wavelength of 355 nm and an emission recording at 460 nm. The initial velocities were monitored as changes in fluorescence intensity. The sigmoidal curves were fitted to the data using the following non-linear regression equation for the inhibitory dose-response curves with variable slope (2): […]
where x is the peptide concentration, y is the residual percentage of protease activity and p is the hill slope. Half maximum inhibitory concentration (IC50) values were derived from the fitted curves from GraphPad Prism 8 8.0.0. software (GraphPad software, Inc., San Diego, California). The final Ki was subsequently determined using the Cheng-Prusoff equation (3): […]
where Km (115 μM) is the Michaelis constant for the hydrolysis of Z-Gly-Gly-Arg-AMC catalysed by huPA which has been determined by standard Michaelis-Menten equation.
Values were determined using either OriginPro 8G software (OriginLab Corporation, Northamppton, MA, USA) or GraphPad Prism 8.0.0. software (GraphPad software, Inc., San […]
Recombinant production of the catalytic domain of human urokinase-type […]
The low molecular weight (LMW) human urokinase-type plasminogen activator (huPA) comprising the truncated 23 amino acid peptide fragment of chain A (Lys136-Lys158 in […]

[2] = target: T2, murine uPA (muPA) (Mus musculus, UniProt P06869); test: Specificity determination, residual protease activity (fluorogenic substrate); type: biochemical; details: 25 °C, pH 7.4, Z-Gly-Gly-Arg-AMC 50 μM
T2 construct: mouse uPA (MUPA-LMW,; purchased Molecular Innovations MUPA-LMW
Procedure: 5% v/v DMSO. Final concentrations of serine proteases were the following: human uPA (UPA-LMW, Molecular Innovations, Novi, MI, USA) 1.5 nM, mouse uPA (MUPA-LMW, Molecular Innovations, Novi, MI, USA) 12 nM, human tPA (HTPATC; Molecular Innovations, Novi, MI, USA) 7.5 nM, mouse tPA (MTPA, Molecular Innovations, Novi, MI, USA) 6 nM, human trypsin (HTRYP, Molecular Innovations, Novi, MI, USA) 0.05 nM, human plasmin (HPLM, Molecular Innovations, Novi, MI, USA) 1.5 nM, human plasma kallikrein (IHPKA, Innovative Research, Novi, MI, USA) 0.5 nM, human thrombin (IHT, Innovative Research, Novi, MI, USA) 10 nM, and human factor XIIa (IHFXIIa, Innovative Research, Novi, MI, USA) 6 nM. Two-fold dilutions of UK970 bicyclic peptide inhibitor were prepared ranging from 1 mM to 125 nM for all the proteases. For human uPA an extra two-fold UK970 inhibitor dilution experiment was performed by using inhibitor concentrations ranging from 2000 nM to 0.12 nM. For the determination of the Ki inhibitory constants, the following fluorogenic substrates were used at final concentration of 50 μM: Z-Gly-Gly-Arg-AMC (for human uPA, murine uPA, human tPA, murine tPA, human trypsin, human thrombin and human factor XIIa; Bachem, Bubendorf, Switzerland), Z-Phe-Arg-AMC (for human plasma kallikrein; Bachem, Bubendorf, Switzerland) and H-D-Val-Leu-Lys-AMC (for human plasmin; Bachem, Bubendorf, Switzerland). The initial velocities were monitored as changes in fluorescence intensity during 30 min on a Tecan microplate reader (Tecan infinite 200 pro, Tecan Trading AG, Switzerland) using black microfluor 96-well plate Nunc MicroWell (Thermo Fisher Scientific, Dreieich, Germany). The enzymatic reactions were performed at 25 °C under shacking with an excitation wavelength of 355 nm and an emission recording at 460 nm.
Apparent equilibrium constants Kiapps values were determined by non-linear regression analyses of Vi/V0 versus [I]0 using equation (2). The final Kis were subsequently determined by correcting for the competitive effect of the substrate [S]0 using equation (3). The kinetic constants Kms for the hydrolysis of fluorogenic substrate, catalysed by each protease, were determined by standard Michaelis-Menten equation. Values were determined using either OriginPro 8G software (OriginLab Corporation, Northamppton, MA, USA) or GraphPad Prism 8.0.0. software (GraphPad software, Inc., San Diego, California). […]

T2 sequence (P06869 180-433 limits assumed): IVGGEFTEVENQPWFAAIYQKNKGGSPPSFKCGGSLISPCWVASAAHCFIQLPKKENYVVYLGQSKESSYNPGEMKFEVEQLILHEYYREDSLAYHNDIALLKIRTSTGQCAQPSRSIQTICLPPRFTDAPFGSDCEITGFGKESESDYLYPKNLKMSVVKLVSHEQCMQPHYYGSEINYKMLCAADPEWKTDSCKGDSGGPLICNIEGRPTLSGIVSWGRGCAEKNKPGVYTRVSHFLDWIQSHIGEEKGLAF
T2 sequence (P06869 157-178 partner limits assumed): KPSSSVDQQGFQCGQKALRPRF

SMILES | Ki [1] [nM] | Ki [2] [nM]
CC(C)[C@@H]1NC(=O)CNC(=O)[C@@H]2CSCc3cc(cc(c3)CSC[C@@H](C(=O)NCC(N)=O)NC(=O)[C@H](CC(=O)O)NC(=O)CNC(=O)[C@@H]3CCCN3C(=O)[C@H](CC(=O)O)NC1=O)CSC[C@H](NC(=O)[C@H](C)N)C(=O)N[C@@H](CC(N)=O)C(=O)N[C@@H](CO)C(=O)N[C@@H](CCCCN)C(=O)N[C@@H](Cc1ccccc1)C(=O)N[C@@H](CO)C(=O)NCC(=O)N2 [UK975] (H-ACNSKFSGCGVDPGDCG-NH2; linker 2-9-16 via TBMB) | 874 | 
CC(C)[C@@H]1NC(=O)CNC(=O)[C@@H]2CSCc3cc(cc(c3)CSC[C@@H](C(=O)NCC(N)=O)NC(=O)[C@H](CC(=O)O)NC(=O)[C@H](CO)NC(=O)[C@@H]3CCCN3C(=O)[C@H](CC(=O)O)NC1=O)CSC[C@H](NC(=O)[C@H](C)N)C(=O)N[C@@H](CC(N)=O)C(=O)N[C@@H](CO)C(=O)N[C@@H](CCCCN)C(=O)N[C@@H](Cc1ccccc1)C(=O)N[C@@H](CO)C(=O)NCC(=O)N2 [UK976] (H-ACNSKFSGCGVDPSDCG-NH2; linker 2-9-16 via TBMB) | 119 ± 0.9 | 
CC(C)[C@@H]1NC(=O)CNC(=O)[C@@H]2CSCc3cc(cc(c3)CSC[C@@H](C(=O)NCC(N)=O)NC(=O)[C@H](CCC(=O)O)NC(=O)CNC(=O)[C@@H]3CCCN3C(=O)[C@H](CC(=O)O)NC1=O)CSC[C@H](NC(=O)[C@H](C)N)C(=O)N[C@@H](CC(N)=O)C(=O)N[C@@H](CO)C(=O)N[C@@H](CCCCN)C(=O)N[C@@H](Cc1ccccc1)C(=O)N[C@@H](CO)C(=O)NCC(=O)N2 [UK977] (H-ACNSKFSGCGVDPGECG-NH2; linker 2-9-16 via TBMB) | 157 ± 1.1 | 
CC(C)[C@@H]1NC(=O)CNC(=O)[C@@H]2CSCc3cc(cc(c3)CSC[C@@H](C(=O)NCC(N)=O)NC(=O)[C@H](CCC(=O)O)NC(=O)[C@H](CO)NC(=O)[C@@H]3CCCN3C(=O)[C@H](CC(=O)O)NC1=O)CSC[C@H](NC(=O)[C@H](C)N)C(=O)N[C@@H](CC(N)=O)C(=O)N[C@@H](CO)C(=O)N[C@@H](CCCCN)C(=O)N[C@@H](Cc1ccccc1)C(=O)N[C@@H](CO)C(=O)NCC(=O)N2 [UK978] (H-ACNSKFSGCGVDPSECG-NH2; linker 2-9-16 via TBMB) | 72 ± 0.7 | 1700
